For one data set, the target named is T1, Human Adrenal 3BHSD (Homo sapiens, UniProt P26439).
T1 construct: microsomes derived from human adrenal tissues; from tissue; host or cells: human adrenal tissue (microsomes)
T1 sequence (P26439 1-372): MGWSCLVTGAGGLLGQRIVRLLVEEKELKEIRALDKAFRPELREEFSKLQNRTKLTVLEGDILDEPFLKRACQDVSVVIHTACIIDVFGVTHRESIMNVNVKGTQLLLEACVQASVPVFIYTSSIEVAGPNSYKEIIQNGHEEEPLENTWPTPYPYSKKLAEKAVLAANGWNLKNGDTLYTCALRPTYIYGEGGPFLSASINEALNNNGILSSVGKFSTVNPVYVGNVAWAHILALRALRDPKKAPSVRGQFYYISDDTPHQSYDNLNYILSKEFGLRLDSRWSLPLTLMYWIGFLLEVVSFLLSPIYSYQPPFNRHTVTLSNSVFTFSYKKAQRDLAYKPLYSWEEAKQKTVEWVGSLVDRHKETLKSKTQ
Nature of the data set: Inhibition of human adrenal 3β-hydroxy-Δ^5-steroid dehydrogenase/3-keto-Δ^5-steroid isomerase (conversion of DHEA to androstenedione, human adrenal microsomes). The conditions noted are these: pH 7.5, DHEA substrate, 1 mM NAD^+, 1 to 60 minutes. The format is biochemical. How it is done:
Enzyme activities are measured using microsomes derived from human adrenal tissues. Microsomes were prepared by homogenization of the tissue followed by differential centrifugation of the homogenate. Microsome extracts were incubated with varying concentrations of dehydroepiandrosterone (DHEA), 1 mM NAD^+, and varying amounts of the compounds of Formula (I), i.e. a test compound, in pH 7.5 buffer for a period of time within the range of 1 to 60 minutes. Corresponding incubations were carried out with no test compound as a control study. The percentage of conversion of DHEA to androstenedione in the presence of test compounds compared to the corresponding conversion in the control study was estimated using HPLC with radiochemical detection.

Data set [1] deals with T2, human type 1 5α-reductase (Homo sapiens, UniProt P18405).
T2 construct: made in house; host or cells: recombinant baculovirus infected SF9 cells (microsomes)
T2 sequence (P18405 1-259): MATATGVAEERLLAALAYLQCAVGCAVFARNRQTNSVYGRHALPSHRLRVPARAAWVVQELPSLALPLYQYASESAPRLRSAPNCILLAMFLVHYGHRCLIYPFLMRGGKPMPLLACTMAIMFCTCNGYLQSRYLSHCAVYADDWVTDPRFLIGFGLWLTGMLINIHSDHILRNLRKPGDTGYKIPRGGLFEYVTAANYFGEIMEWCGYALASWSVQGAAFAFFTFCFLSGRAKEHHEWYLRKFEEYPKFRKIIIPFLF
Nature of the data set: Inhibition of human type 1 5α-reductase (conversion of testosterone to DHT, microsomes of baculovirus infected SF9 cells). The conditions noted are these: pH 7.0, 100 nM testosterone, 10 min preincubation, 10-120 min; read-out: IC50 Human Type 1 5AR. In kind it is biochemical. How it is done:
(§1) Enzyme activities may be determined using microsomes derived from: 1) prostate tissue from benign prostatic hyperplasia (BPH) patients; 2) recombinant baculovirus infected SF9 cells that express human type 1 5α-reductase; or 3) recombinant baculovirus infected SF9 cells that express human type 2 5α-reductase. Microsomes were prepared by homogenization of the tissue or cells, followed by differential centrifugation of the homogenate. Microsome extracts were incubated with varying concentrations of [1,2,6,7-^3 H]-testosterone, 1 mM NADPH, and varying amounts of the compounds of formula (I,) i.e. a test compound, in buffer containing a NADPH regenerating system capable of maintaining NADPH concentrations for a period of time within the range 0.5-240 minutes. Corresponding incubations were carried out with no test compound as a control study.
(§2) For type 1 IC50 measurements, assay components except testosterone were preincubated for 10 minutes at pH 7.0, and following the addition of 100 nM testosterone the assays were allowed to proceed for 10-120 minutes. For type 2 IC50 measurements, assay components except testosterone were preincubated for 20 minutes at pH 6.0, and following the addition of 8 nM testosterone the assays were allowed to proceed for 20-40 minutes. […]

For data set [2], the system named is bovine adrenal 3β-hydroxy-Δ^5 -steroid dehydrogenase/3-keto-Δ^5 -steroid isomerase (3BHSD). The conditions noted are these: literature (Tan; Brandt and Levy); cited from earlier work.
The test system of data set [3] is porcine granulosa cell 3β-hydroxy-Δ^5 -steroid dehydrogenase/3-keto-Δ^5 -steroid isomerase (3BHSD). The conditions noted are these: literature (Tan; Brandt and Levy); cited from earlier work.
For data set [4] the following is noted: literature (McConnell; Rasmusson); cited from earlier work.
In data set [5] the target is T3, human type 2 5α-reductase (Homo sapiens, UniProt P31213).
T3 construct: made in house; host or cells: recombinant baculovirus infected SF9 cells (microsomes); prostate tissue of BPH patients is printed as an alternative
T3 sequence (P31213 1-254): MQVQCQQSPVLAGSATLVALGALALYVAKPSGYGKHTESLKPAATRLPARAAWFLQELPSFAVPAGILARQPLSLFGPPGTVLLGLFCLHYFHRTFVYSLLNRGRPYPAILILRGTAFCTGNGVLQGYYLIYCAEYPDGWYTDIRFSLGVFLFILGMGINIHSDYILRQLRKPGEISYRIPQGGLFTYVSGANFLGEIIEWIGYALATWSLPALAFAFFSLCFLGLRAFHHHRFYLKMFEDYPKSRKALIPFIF
Nature of the data set: Inhibition of human type 2 5α-reductase (conversion of testosterone to DHT, microsomes). The format is biochemical. The conditions noted are these: pH 6.0, 8 nM testosterone, 20 min preincubation, 20-40 min; read-out: IC50 Human Type 2 5AR. How it is done: as §1, §2

What is called Ki is the equilibrium dissociation constant of an inhibitor or competing ligand from its target. High values mean weaker binding, low ones tighter binding. The compound `CN1C(=O)CC[C@]2(C)[C@H]3CC[C@]4(C)[C@@H](C(=O)NC5(c6ccc(Cl)cc6)CCCC5)CC[C@H]4[C@@H]3CC[C@@H]12` [Compound 2, 17β-N-1-(4-Chlorophenyl)cyclopentylcarbamoyl-4-methyl-4-aza-5α-androstan-3-one] returned a Ki at Human Adrenal 3BHSD of 10 to 1000 nM.

As to `CN1C(=O)CC[C@]2(C)[C@H]3CC[C@]4(C)[C@@H](C(=O)Nc5cc(C(C)(C)C)ccc5C(C)(C)C)CC[C@H]4[C@@H]3CC[C@@H]12` [Compound 29, 17β-N-(2,5-Di-t-butyl)phenylcarbamoyl-4-methyl-4-aza-5α-androstan-3-one], on Human Adrenal 3BHSD, the Ki was in the range of 10 to 1000 nM.

In general, IC50 refers to the point on the concentration scale where inhibition reaches its midpoint. For `C[C@]12C=CC(=O)N[C@@H]1CC[C@@H]1[C@@H]2CC[C@]2(C)[C@@H](C(=O)NC3(c4ccc5c(c4)OCO5)CCCCC3)CC[C@@H]12` [Compound 12, 17β-N-1-(3,4-Methylenedioxyphenyl)cyclohexylcarbamoyl-4-aza-5α-androst-1-en-3-one], in data set [1], the IC50 was in the range of 10 to 1000 nM. Also, on Human Adrenal 3BHSD, the inhibition constant Ki lay within 10 to 1000 nM.

For the compound `CCN(CC)C(=O)[C@H]1CC[C@H]2[C@@H]3CC[C@H]4N(C)C(=O)CC[C@]4(C)[C@H]3CC[C@]12C` [Compound 4-MA], the “inhibition of bovine adrenal 3BHSD” value in data set [2] is reported as “potent inhibition”. Further, the “inhibition of porcine granulosa cell 3BHSD” value in data set [3] is reported as “potent inhibition”. Besides, the hepatotoxicity entry in data set [4] was “hepatotoxicity”.

`CC(C)(C)c1ccc(C(F)(F)F)cc1NC(=O)[C@H]1CC[C@H]2[C@@H]3CC[C@H]4NC(=O)C=C[C@]4(C)[C@H]3CC[C@]12C` [Compound 24, 17β-N-(2-t-Butyl-5-trifluoromethyl)phenylcarbamoyl-4-aza-5α-androst-1-en-3-one]: in data set [5], the IC50 was 1 to 10 nM.

For the compound `CN1C(=O)CC[C@]2(C)[C@H]3CC[C@]4(C)[C@@H](C(=O)Nc5cc(C(F)(F)F)ccc5C(C)(C)C)CC[C@H]4[C@@H]3CC[C@@H]12` [Compound 26, 17β-N-(2-t-Butyl-5-trifluoromethyl)phenylcarbamoyl-4-methyl-4-aza-5α-androstan-3-one], the Ki at Human Adrenal 3BHSD is 10 to 1000 nM.

Compound `CN1C(=O)CC[C@]2(C)[C@H]3CC[C@]4(C)[C@@H](C(=O)Nc5cc(C(F)(F)F)ccc5C(F)(F)F)CC[C@H]4[C@@H]3CC[C@@H]12` [Compound 23, 17β-N-(2,5-bis(Trifluoromethyl))phenylcarbamoyl-4-methyl-4-aza-5α-androstan-3-one] showed a Ki on Human Adrenal 3BHSD of 10 to 1000 nM.

`CC(C)(C)c1ccc(C(C)(C)C)c(NC(=O)[C@H]2CC[C@H]3[C@@H]4CC[C@H]5NC(=O)C=C[C@]5(C)[C@H]4CC[C@]23C)c1` [Compound 27, 17β-N-(2,5-Di-t-butyl)phenylcarbamoyl-4-aza-5α-androst-1-en-3-one] displayed a Ki on Human Adrenal 3BHSD of 10 to 1000 nM.

The record behind these values is patent US5998427A, “Androstenones” (Glaxo Wellcome Inc., priority 1998, dated 1999).
